Experiments:
Venturia inaequalis = experiment: In vivo fungicidal evaluation, Apple Scab (AS); conditions: 200 ppm foliar spray; further: ranges in brackets are in %
Protocol: (§1) Test compounds are dissolved or suspended in acetone and diluted with deionized water containing about 0.05% TWEEN®20, a polyoxyethylene sorbitan monolaurate surfactant manufactured by Atlas Chemical Industries, to give a concentration of 200 ppm. Host plants are sprayed with the test solution, dried and inoculated with fungi. When disease symptom development is optimal, the plants are rated for disease control according to the rating scale shown below. Each test contains inoculated treated plants, inoculated untreated plants and a reference standard. When more than one test is run, the data are averaged. The data obtained are shown in Table I. |AS Apple Scab Venturia inaequalis

Plasmopara viticola = experiment: In vivo fungicidal evaluation, Grape Downy Mildew (GDM); conditions: 200 ppm foliar spray; further: ranges in brackets are in %
Protocol: as §1, with “|GDM Grape Downy Mildew | Plasmopara viticola” for “|AS Apple Scab Venturia inaequalis”

Botrytis cinerea = experiment: In vivo fungicidal evaluation, Pepper Botrytis (PB); conditions: 200 ppm foliar spray; further: ranges in brackets are in %
Protocol: as §1, with “|PB Pepper Botrytis Botrytis cinerea” for “|AS Apple Scab Venturia inaequalis”

Pyricularia grisea = format: in vivo; conditions: Rice Blast; 200 ppm foliar spray
Cercospora beticola = experiment: In vivo fungicidal evaluation, Sugar Beet Cercospora (SBC); conditions: 200 ppm foliar spray; further: ranges in brackets are in %
Protocol: as §1, with “|SBC Sugar Beet Cercospora | Cercospora beticola” for “|AS Apple Scab Venturia inaequalis”

Alternaria solani = experiment: In vivo fungicidal evaluation, Tomato Early Blight (TEB); conditions: 200 ppm foliar spray; further: ranges in brackets are in %
Protocol: as §1, with “|TEB Tomato Early Blight | Alternaria solani” for “|AS Apple Scab Venturia inaequalis”

[1] = system: Erysiphe graminis f. sp. tritici; experiment: In vivo fungicidal evaluation, Wheat Powdery Mildew (WPM); conditions: 200 ppm foliar spray; further: ranges in brackets are in %
Protocol: as §1, with “|WPM Wheat Powdery Mildew | Erysiphe graminis | f. sp. tritici” for “|AS Apple Scab Venturia inaequalis”

Septoria nodorum = experiment: In vivo fungicidal evaluation, Wheat Septoria Nodorum (WSN); conditions: 200 ppm foliar spray
Protocol: Test compounds are dissolved or suspended in acetone and diluted with deionized water containing about 0.05% TWEEN®20, a polyoxyethylene sorbitan monolaurate surfactant manufactured by Atlas Chemical Industries, to give a concentration of 200 ppm.
Host plants are sprayed with the test solution, dried and inoculated with fungi. When disease symptom development is optimal, the plants are rated for disease control according to the rating scale shown below. Each test contains inoculated treated plants, inoculated untreated plants and a reference standard. When more than one test is run, the data are averaged.
WSN Wheat Septoria Nodorum

[2] = system: Fusarium oxysporum f. sp. cucumerinum; experiment: In vitro fungicidal evaluation, FUSOXC; format: cell-based; conditions: 25 ppm; 3-7 days at 21° C. Further: ranges in brackets are in %.
Protocol: (§2) Test compounds are dissolved or suspended in acetone and dispersed into cell well plates containing a suspension of ground fungal mycelia/spores in a nutrient broth. Assay plates are incubated for 3-7 days at 21° C. Growth inhibition is measured visually and is rated using the following scale:
(§3) Untreated controls, solvent blanks and reference standards are included in each test.
(§4) Assay fungi include the plant pathogens, Pythium ultimum (PYTHUL); Rhizoctonia solani (RHIZSO); Fusarium oxysporum f. sp. cucumerinum (FUSOXC); and Pseudocercosporella herpotrichoides (PSDCHE).
(§5) When more than one test is run, the data are averaged. The compounds evaluated are reported by compound number given in Example 3.

Pythium ultimum = experiment: In vitro fungicidal evaluation, PYTHUL; format: cell-based; conditions: 25 ppm; 3-7 days at 21° C. Further: ranges in brackets are in %.
Protocol: as §2, §3, §4, §5

Rhizoctonia solani = experiment: In vitro fungicidal evaluation, RHIZSO; format: cell-based; conditions: 25 ppm; 3-7 days at 21° C. Further: ranges in brackets are in %.
Protocol: as §2, §3, §4, §5

[3] = system: Pseudocercosporella herpotrichoides; experiment: In vitro fungicidal evaluation, PSDCHE; format: cell-based; conditions: 25 ppm; 3-7 days at 21° C. Further: ranges in brackets are in %.
Protocol: as §2, §3, §4, §5

[4] = system: Septoria nodorum (propiconazole-resistant and -sensitive strains); format: cell-based; conditions: EC50 resistant strain / EC50 sensitive strain, 50 to 54 hours
[5] = system: Ustilago avenae (triadimefon-resistant and -sensitive strains); format: cell-based; conditions: EC50 resistant strain / EC50 sensitive strain, 50 to 54 hours
[6] = system: Cladosporium cucumerinum (fenarimol-resistant and -sensitive strains); format: cell-based; conditions: EC50 resistant strain / EC50 sensitive strain, 50 to 54 hours

Structure (SMILES)	Disease control rating, AS (Venturia inaequalis)	Disease control rating, GDM (Plasmopara viticola)	Disease control rating, PB (Botrytis cinerea)	Disease control rating, RB (Pyricularia grisea)	Disease control rating, SBC (Cercospora beticola)	Disease control rating, TEB (Alternaria solani)	Disease control rating, WPM [1]	Disease control rating, WSN (Septoria nodorum)	Growth inhibition rating, FUSOXC [2]	Growth inhibition rating, PYTHUL (Pythium ultimum)	Growth inhibition rating, RHIZSO (Rhizoctonia solani)	Growth inhibition rating, PSDCHE [3]	Resistance Factor, Septoria nodorum [4]	Resistance Factor, Ustilago avenae [5]	Resistance Factor, Cladosporium cucumerinum [6]
CC(C)(C)C(CCc1ccc(Cl)cc1)(Cn1cncn1)OB(c1ccc(F)cc1)c1ccc(F)cc1 (centres unmarked) [Compound 4, 1-Tert-butyl-3-(p-chlorophenyl)-1-(1H-1,2,4-triazol-1-ylmethyl)propyl bis(p-fluorophenyl)borinate]	7 (90-95)	8 (96-99)	7 (90-95)	6 (75-89)	6 (75-89)	6 (75-89)	8 (96-99)	2 (15-29)	9 (100)	9 (100)	9 (100)	0 (0)	1.9	2.3	1.3
CC(C)(C)C(O)(CCc1ccc(Cl)cc1)Cn1cncn1 (centres unmarked) [Tebuconazole, reference compound]													6.1		
CC(C)(C)C(CCc1ccc(Cl)cc1)(Cn1cncn1)OB(c1ccccc1)c1ccccc1 (centres unmarked) [Compound 3, 1-Tert-butyl-3-(p-chlorophenyl)-1-(1H-1,2,4-triazol-1-ylmethyl)propyl diphenylborinate]	8 (96-99)	9 (100)	6 (75-89)	6 (75-89)	6 (75-89)	6 (75-89)	8 (96-99)	0 (0)	9 (100)	9 (100)	9 (100)	0 (0)	1.8	2.0	1.7
Clc1ccc(COC(Cn2ccnc2)c2ccc(Cl)cc2Cl)cc1 (centres unmarked) [Econazole nitrate, reference compound]													1.8	2.0	2.0
Clc1ccc(COC(Cn2ccnc2)c2ccc(Cl)cc2Cl)c(Cl)c1 (centres unmarked) [Miconazole nitrate, reference compound]													2.5	4.1	2.4
Fc1ccc(B(OC(Cn2ccnc2)c2ccc(Cl)cc2Cl)c2ccc(F)cc2)cc1 (centres unmarked) [Compound 1, 1-(2,4-Dichlorophenyl)-2-(imidazol-1-yl)ethyl bis(p-fluorophenyl)borinate]	0 (0)	0 (0)	0 (0)	8 (96-99)	6 (75-89)	4 (45-59)	8 (96-99)	0 (0)	5 (60-89)	5 (60-89)	7 (90-99)	0 (0)	1.2	2.6	1.5
Fc1ccc(B(OC(c2ccc(Cl)cc2)(c2cncnc2)c2ccccc2Cl)c2ccc(F)cc2)cc1 (centres unmarked) [Compound 5, (o-Chlorophenyl)(p-chlorophenyl)(5-pyrimidinyl)methyl bis(p-fluorophenyl)borinate]	7 (90-95)	0 (0)	0 (0)	0 (0)	7 (90-95)	3 (30-44)	8 (96-99)	7 (90-95)	0 (0)	1 (1-29)	7 (90-99)	0 (0)			
Clc1ccc(C(OB(c2ccccc2)c2ccccc2)(c2cncnc2)c2ccccc2Cl)cc1 (centres unmarked) [Compound 2, (o-Chlorophenyl)(p-chlorophenyl)(5-pyrimidinyl)methyl diphenylborinate]	9 (100)	3 (30-44)	8 (96-99)	0 (0)	9 (100)	8 (96-99)	8 (96-99)	8 (96-99)	9 (100)	7 (90-99)	9 (100)	0 (0)	1.3	1.3	
OC(c1ccc(Cl)cc1)(c1cncnc1)c1ccccc1Cl (centres unmarked) [Fenarimol, reference compound]													9.6	9.9	
Clc1ccc(C(Cn2ccnc2)OB(c2ccccc2)c2ccccc2)c(Cl)c1 (centres unmarked) [Compound 6, 1-(2,4-Dichlorophenyl)-2-(imidazol-1-yl)ethyl diphenylborinate]	3 (30-44)	0 (0)	0 (0)	0 (0)	5 (60-74)	0 (0)	8 (96-99)	0 (0)	9 (100)	7 (90-99)	9 (100)	0 (0)	1.0	1.6	1.1

Reference: patent US5591726A, “Heterocyclylalkyl diarylboron ester and thioester fungicidal agents” (American Cyanamid Company, priority 1994, dated 1997)
